Experimental data taken from ChEMBL document CHEMBL4033673, “Conformational control in structure-based drug design” (Bioorg Med Chem Lett, 2017).
One block for each molecule: values may come before it.

Tests used:
[1] = target: T1, Mineralocorticoid receptor (Homo sapiens, UniProt P08235); test: Antagonist activity at mineralocorticoid receptor (unknown origin)
T1 sequence (P08235 whole entry): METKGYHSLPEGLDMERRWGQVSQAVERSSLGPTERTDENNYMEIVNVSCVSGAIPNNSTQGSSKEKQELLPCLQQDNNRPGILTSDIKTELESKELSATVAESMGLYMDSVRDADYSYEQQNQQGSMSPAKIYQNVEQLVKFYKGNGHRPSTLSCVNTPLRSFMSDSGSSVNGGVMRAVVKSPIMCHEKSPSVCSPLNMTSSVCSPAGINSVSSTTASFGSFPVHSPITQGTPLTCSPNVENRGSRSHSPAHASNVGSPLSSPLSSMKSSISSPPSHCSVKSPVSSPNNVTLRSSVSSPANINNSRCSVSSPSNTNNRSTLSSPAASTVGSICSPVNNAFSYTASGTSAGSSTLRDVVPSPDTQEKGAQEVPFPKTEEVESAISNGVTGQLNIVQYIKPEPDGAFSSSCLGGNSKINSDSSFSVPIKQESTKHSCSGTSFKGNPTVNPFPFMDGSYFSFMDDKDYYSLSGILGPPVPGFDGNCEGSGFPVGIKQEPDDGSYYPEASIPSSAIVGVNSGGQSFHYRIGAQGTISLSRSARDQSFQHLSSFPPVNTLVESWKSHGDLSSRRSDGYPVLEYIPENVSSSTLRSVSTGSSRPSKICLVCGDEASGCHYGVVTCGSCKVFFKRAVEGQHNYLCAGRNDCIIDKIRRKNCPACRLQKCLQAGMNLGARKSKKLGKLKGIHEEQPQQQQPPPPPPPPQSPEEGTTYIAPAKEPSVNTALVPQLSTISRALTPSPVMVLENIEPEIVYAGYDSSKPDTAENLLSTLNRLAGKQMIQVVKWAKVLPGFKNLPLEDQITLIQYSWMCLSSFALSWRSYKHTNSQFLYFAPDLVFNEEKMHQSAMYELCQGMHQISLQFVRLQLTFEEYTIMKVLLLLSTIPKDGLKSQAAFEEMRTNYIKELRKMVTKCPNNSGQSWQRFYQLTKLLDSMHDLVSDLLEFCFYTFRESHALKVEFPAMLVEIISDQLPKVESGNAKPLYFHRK

[2] = Displacement of (2S)-N-(2-phenylphenyl)-1-[2-[1-(tritritiomethyl)benzimidazol-2-yl]sulfanylacetyl]pyrrolidine-2-carboxamide from human OX1 receptor Ile408-Val mutant expressed on CHO cell membrane measured after 3 hrs by TopCount method
Orexin receptor type 2 = target: T2, Orexin receptor type 2 (Homo sapiens, UniProt O43614); test: Displacement of (2S)-N-(2-pyrrol-1-ylphenyl)-1-[2-[1-(tritritiomethyl)benzimidazol-2-yl]sulfanylacetyl]pyrrolidine-2-carboxamide from recombinant human OX2 receptor expressed in CHO cell membranes after 3 hrs by Topcount method
T2 sequence (O43614 whole entry): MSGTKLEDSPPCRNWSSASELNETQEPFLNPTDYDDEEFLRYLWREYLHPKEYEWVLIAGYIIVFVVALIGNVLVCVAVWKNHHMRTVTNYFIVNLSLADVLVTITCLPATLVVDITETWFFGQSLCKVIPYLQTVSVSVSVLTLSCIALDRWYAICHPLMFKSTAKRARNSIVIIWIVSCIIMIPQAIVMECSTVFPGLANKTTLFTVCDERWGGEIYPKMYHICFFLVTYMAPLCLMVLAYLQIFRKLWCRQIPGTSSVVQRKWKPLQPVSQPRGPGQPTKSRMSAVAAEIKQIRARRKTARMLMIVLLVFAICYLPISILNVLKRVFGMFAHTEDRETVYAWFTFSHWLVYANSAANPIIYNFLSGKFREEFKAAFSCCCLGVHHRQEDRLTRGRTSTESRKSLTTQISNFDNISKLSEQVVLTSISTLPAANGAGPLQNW

Ki [1]: 196 nM
SMILES: O=C1COc2ccc(N3CCc4ccc(F)cc4CC3)cc2N1

SMILES: Cc1ccc(-n2nccn2)c(C(=O)N2CCCC(COc3ccc(F)cn3)C2)c1 (stereo not drawn)
Ki [2]: 96 nM

Ki (Orexin receptor type 2): 0.2 nM
SMILES: Cc1ccc(-n2nccn2)c(C(=O)N2CCC[C@@H](COc3ccc(F)cn3)[C@@H]2C)c1 (relative stereo)
